Reference: ChEMBL document CHEMBL4715724, “Novel 5-substituted-2-anilinoquinolines with 3-(morpholino or 4-methylpiperazin-1-yl)propoxy moiety as broad spectrum antiproliferative agents: Synthesis, cell based assays and kinase screening” (Bioorg Med Chem Lett, 2016)

Columns and labels:
Format in all cases: functional
UO-31 = assay: cells; conditions: Homo sapiens, time 48 hrs
Description: Growth inhibition of human UO-31 cells incubated for 48 hrs by sulforhodamine B assay

RXF 393 = assay: cells; conditions: Homo sapiens, time 48 hrs
Description: Growth inhibition of human RXF 393 cells incubated for 48 hrs by sulforhodamine B assay

K562 = assay: cells; conditions: Homo sapiens, time 48 hrs
Description: Growth inhibition of human K562 cells incubated for 48 hrs by sulforhodamine B assay

TK-10 = assay: cells; conditions: Homo sapiens, time 48 hrs
Description: Growth inhibition of human TK-10 cells incubated for 48 hrs by sulforhodamine B assay

OVCAR-8 = assay: cells; conditions: Homo sapiens, time 48 hrs
Description: Growth inhibition of human OVCAR-8 cells incubated for 48 hrs by sulforhodamine B assay

NCI-H522 = assay: cells; conditions: Homo sapiens, time 48 hrs
Description: Growth inhibition of human NCI-H522 cells incubated for 48 hrs by sulforhodamine B assay

HCT-116 = assay: cells; conditions: Homo sapiens, time 48 hrs
Description: Growth inhibition of human HCT-116 cells incubated for 48 hrs by sulforhodamine B assay

MDA-MB-468 = assay: cells; conditions: Homo sapiens, time 48 hrs
Description: Growth inhibition of human MDA-MB-468 cells incubated for 48 hrs by sulforhodamine B assay

SF-295 = assay: cells; conditions: Homo sapiens, time 48 hrs
Description: Growth inhibition of human SF-295 cells incubated for 48 hrs by sulforhodamine B assay

U-251 = assay: cells; conditions: Homo sapiens, time 48 hrs
Description: Growth inhibition of human U-251 cells incubated for 48 hrs by sulforhodamine B assay

KM12 = assay: cells; conditions: Homo sapiens, time 48 hrs
Description: Growth inhibition of human KM12 cells incubated for 48 hrs by sulforhodamine B assay

[1] = system: Panel melanoma (Carcinoma cell lines); assay: cells; conditions: Homo sapiens, time 48 hrs
Description: Growth inhibition of human Panel melanoma (Carcinoma cell lines) incubated for 48 hrs by sulforhodamine B assay

[2] = system: Panel renal (Carcinoma cell lines); assay: cells; conditions: Homo sapiens, time 48 hrs
Description: Growth inhibition of human Panel renal (Carcinoma cell lines) incubated for 48 hrs by sulforhodamine B assay

SK-MEL-28 = assay: cells; conditions: Homo sapiens, time 48 hrs
Description: Growth inhibition of human SK-MEL-28 cells incubated for 48 hrs by sulforhodamine B assay

A549 = assay: cells; conditions: Homo sapiens, time 48 hrs
Description: Growth inhibition of human A549/ATCC cells incubated for 48 hrs by sulforhodamine B assay

OVCAR-4 = assay: cells; conditions: Homo sapiens, time 48 hrs
Description: Growth inhibition of human OVCAR-4 cells incubated for 48 hrs by sulforhodamine B assay

NCI-H226 = assay: cells; conditions: Homo sapiens, time 48 hrs
Description: Growth inhibition of human NCI-H226 cells incubated for 48 hrs by sulforhodamine B assay

NCI-H23 = assay: cells; conditions: Homo sapiens, time 48 hrs
Description: Growth inhibition of human NCI-H23 cells incubated for 48 hrs by sulforhodamine B assay

[3] = system: Panel NCI-60 (60 carcinoma cell lines); assay: cells; conditions: Homo sapiens, time 48 hrs
Description: Growth inhibition of human Panel NCI-60 (60 carcinoma cell lines) incubated for 48 hrs by sulforhodamine B assay

Hs-578T = assay: cells; conditions: Homo sapiens, time 48 hrs
Description: Growth inhibition of human Hs-578T cells incubated for 48 hrs by sulforhodamine B assay

CCRF-CEM = assay: cells; conditions: Homo sapiens, time 48 hrs
Description: Growth inhibition of human CCRF-CEM cells incubated for 48 hrs by sulforhodamine B assay

HOP-92 = assay: cells; conditions: Homo sapiens, time 48 hrs
Description: Growth inhibition of human HOP-92 cells incubated for 48 hrs by sulforhodamine B assay

[4] = system: Panel prostate (Carcinoma cell lines); assay: cells; conditions: Homo sapiens, time 48 hrs
Description: Growth inhibition of human Panel prostate (Carcinoma cell lines) incubated for 48 hrs by sulforhodamine B assay

A498 = assay: cells; conditions: Homo sapiens, time 48 hrs
Description: Growth inhibition of human A498 cells incubated for 48 hrs by sulforhodamine B assay

[5] = system: Panel leukemia (Carcinoma cell lines); assay: cells; conditions: Homo sapiens, time 48 hrs
Description: Growth inhibition of human Panel leukemia (Carcinoma cell lines) incubated for 48 hrs by sulforhodamine B assay

HT-29 = assay: cells; conditions: Homo sapiens, time 48 hrs
Description: Growth inhibition of human HT-29 cells incubated for 48 hrs by sulforhodamine B assay

MDA-MB-231 = assay: cells; conditions: Homo sapiens, time 48 hrs
Description: Growth inhibition of human MDA-MB-231/ATCC cells incubated for 48 hrs by sulforhodamine B assay

UACC-257 = assay: cells; conditions: Homo sapiens, time 48 hrs
Description: Growth inhibition of human UACC-257 cells incubated for 48 hrs by sulforhodamine B assay

cells = conditions: Homo sapiens, Non-small cell lung cancer cell line; time 48 hrs
Description: Growth inhibition of human Non-small cell lung cancer cell line incubated for 48 hrs by sulforhodamine B assay

MCF7 = assay: cells; conditions: Homo sapiens, time 48 hrs
Description: Growth inhibition of human MCF7 cells incubated for 48 hrs by sulforhodamine B assay

LOX IMVI = assay: cells; conditions: Homo sapiens, time 48 hrs
Description: Growth inhibition of human LOX IMVI cells incubated for 48 hrs by sulforhodamine B assay

[6] = system: Panel CNS (Carcinoma cell lines); assay: cells; conditions: Homo sapiens, time 48 hrs
Description: Growth inhibition of human Panel CNS (Carcinoma cell lines) incubated for 48 hrs by sulforhodamine B assay

OVCAR-3 = assay: cells; conditions: Homo sapiens, time 48 hrs
Description: Growth inhibition of human OVCAR-3 cells incubated for 48 hrs by sulforhodamine B assay

NCI-H322M = assay: cells; conditions: Homo sapiens, time 48 hrs
Description: Growth inhibition of human NCI-H322M cells incubated for 48 hrs by sulforhodamine B assay

[7] = system: Panel breast (Carcinoma cell lines); assay: cells; conditions: Homo sapiens, time 48 hrs
Description: Growth inhibition of human Panel breast (Carcinoma cell lines) incubated for 48 hrs by sulforhodamine B assay

IGROV-1 = assay: cells; conditions: Homo sapiens, time 48 hrs
Description: Growth inhibition of human IGROV-1 cells incubated for 48 hrs by sulforhodamine B assay

PC-3 = assay: cells; conditions: Homo sapiens, time 48 hrs
Description: Growth inhibition of human PC-3 cells incubated for 48 hrs by sulforhodamine B assay

HOP-62 = assay: cells; conditions: Homo sapiens, time 48 hrs
Description: Growth inhibition of human HOP-62 cells incubated for 48 hrs by sulforhodamine B assay

NCI-H460 = assay: cells; conditions: Homo sapiens, time 48 hrs
Description: Growth inhibition of human NCI-H460 cells incubated for 48 hrs by sulforhodamine B assay

HCT-15 = assay: cells; conditions: Homo sapiens, time 48 hrs
Description: Growth inhibition of human HCT-15 cells incubated for 48 hrs by sulforhodamine B assay

[8] = system: Panel ovarian (Carcinoma cell lines); assay: cells; conditions: Homo sapiens, time 48 hrs
Description: Growth inhibition of human Panel ovarian (Carcinoma cell lines) incubated for 48 hrs by sulforhodamine B assay

[9] = system: Panel colon (Carcinoma cell lines); assay: cells; conditions: Homo sapiens, time 48 hrs
Description: Growth inhibition of human Panel colon (Carcinoma cell lines) incubated for 48 hrs by sulforhodamine B assay

UACC-62 = assay: cells; conditions: Homo sapiens, time 48 hrs
Description: Growth inhibition of human UACC-62 cells incubated for 48 hrs by sulforhodamine B assay

SNB-75 = assay: cells; conditions: Homo sapiens, time 48 hrs
Description: Growth inhibition of human SNB-75 cells incubated for 48 hrs by sulforhodamine B assay

SR = assay: cells; conditions: Homo sapiens, time 48 hrs
Description: Growth inhibition of human SR cells incubated for 48 hrs by sulforhodamine B assay

[10] = read-out: LC50 (the source's name)

Clc1cc(Cl)cc(Nc2ccc3c(OCCCN4CCOCC4)cccc3n2)c1
GI50 (UO-31): 1510 nM | GI50 (RXF 393): 2260 nM | GI50 (K562): 2210 nM | GI50 (TK-10): 2380 nM | GI50 (OVCAR-8): 3.54 µM | GI50 (NCI-H522): 1820 nM | GI50 (HCT-116): 1820 nM | GI50 (MDA-MB-468): 2080 nM | GI50 (SF-295): 1920 nM | GI50 (U-251): 1980 nM | GI50 (KM12): 2000 nM | GI50 [1]: 3.02 µM | GI50 [2]: 3.96 µM | GI50 (SK-MEL-28): 1650 nM | GI50 (A549): 2600 nM | GI50 (OVCAR-4): 10.3 µM | GI50 (NCI-H226): 3.16 µM | GI50 (NCI-H23): 2940 nM | GI50 [3]: 2570 nM | GI50 (Hs-578T): 2510 nM | GI50 (CCRF-CEM): 2.36 µM | GI50 (HOP-92): 2030 nM | GI50 [4]: 2490 nM | GI50 (A498): 2390 nM | GI50 [5]: 2350 nM | GI50 (HT-29): 1760 nM | GI50 (MDA-MB-231): 1800 nM | GI50 (UACC-257): 2050 nM | GI50 (cells): 2530 nM | GI50 (MCF7): 1740 nM | GI50 (LOX IMVI): 1720 nM | GI50 [6]: 2180 nM | GI50 (OVCAR-3): 2920 nM | GI50 (NCI-H322M): 2510 nM | GI50 [7]: 3.33 µM | GI50 (IGROV-1): 3.9 µM | GI50 (PC-3): 1940 nM | GI50 (HOP-62): 2290 nM | GI50 (NCI-H460): 2430 nM | GI50 (HCT-15): 1750 nM | GI50 [8]: 4.02 µM | GI50 [9]: 1830 nM | GI50 (UACC-62): 2010 nM

CN1CCN(CCCOc2cccc3nc(Nc4ccc(Cl)c(F)c4)ccc23)CC1
GI50 (UO-31): 1570 nM | GI50 (RXF 393): 1960 nM | GI50 (K562): 1470 nM | GI50 (TK-10): 1810 nM | GI50 (OVCAR-8): 2.02 µM | GI50 (NCI-H522): 1750 nM | GI50 (HCT-116): 1560 nM | GI50 (MDA-MB-468): 1720 nM | GI50 (SF-295): 1790 nM | GI50 (U-251): 1810 nM | GI50 (KM12): 1770 nM | GI50 [1]: 1.82 µM | LC50 [1]: 6.77 µM | TGI [1]: 3.5 µM | GI50 [2]: 2.22 µM | LC50 (lethal concentration 50%) [2]: 19.8 µM | TGI [2]: 6.21 µM | GI50 (SK-MEL-28): 1720 nM | GI50 (A549): 1960 nM | GI50 (OVCAR-4): 3.13 µM | GI50 (NCI-H226): 2.05 µM | GI50 (NCI-H23): 1750 nM | GI50 [3]: 1820 nM | TGI [3]: 3.89 µM | CC50 [3, 10]: 9.12 µM | GI50 (Hs-578T): 2120 nM | GI50 (HOP-92): 1330 nM | GI50 [4]: 1760 nM | LC50 (concentration killing 50% of cells) [4]: 6.21 µM | TGI [4]: 2800 nM | GI50 (A498): 2390 nM | GI50 [5]: 1900 nM | LC50 (50% lethal concentration) [5]: 53.9 µM | TGI [5]: 4.28 µM | GI50 (HT-29): 1410 nM | GI50 (MDA-MB-231): 1680 nM | GI50 (UACC-257): 2040 nM | GI50 (cells): 1750 nM | LC50 (50% lethal concentration) (cells): 9.98 µM | TGI (cells): 3.88 µM | GI50 (MCF7): 1310 nM | GI50 (LOX IMVI): 1640 nM | GI50 [6]: 1740 nM | TGI [6]: 3.35 µM | CC50 [6, 10]: 6.46 µM | GI50 (OVCAR-3): 1700 nM | GI50 (NCI-H322M): 1700 nM | GI50 [7]: 1.84 µM | TGI [7]: 4.5 µM | CC50 [7, 10]: 13.2 µM | GI50 (IGROV-1): 1.95 µM | GI50 (PC-3): 1760 nM | GI50 (HOP-62): 1450 nM | GI50 (NCI-H460): 1910 nM | GI50 (HCT-15): 1400 nM | GI50 [8]: 1.99 µM | LC50 [8]: 11.3 µM | TGI [8]: 4.87 µM | GI50 [9]: 1620 nM | TGI [9]: 3.17 µM | CC50 [9, 10]: 6.21 µM | GI50 (UACC-62): 2050 nM

CC(C)c1ccc(Nc2ccc3c(OCCCN4CCN(C)CC4)cccc3n2)cc1
GI50 (UO-31): 12900 nM | GI50 (RXF 393): 7280 nM | GI50 (K562): 2050 nM | GI50 (TK-10): 16500 nM | GI50 (OVCAR-8): 17.8 µM | GI50 (NCI-H522): 19900 nM | GI50 (HCT-116): 5900 nM | GI50 (MDA-MB-468): 12300 nM | GI50 (SF-295): 3630 nM | GI50 (U-251): 3280 nM | GI50 (KM12): 11300 nM | GI50 [1]: 6.62 µM | GI50 [2]: 13.2 µM | GI50 (SK-MEL-28): 1890 nM | GI50 (A549): 15600 nM | GI50 (OVCAR-4): 13.9 µM | GI50 (NCI-H226): 18.8 µM | GI50 (NCI-H23): 11900 nM | GI50 [3]: 7760 nM | GI50 (Hs-578T): 16900 nM | GI50 (CCRF-CEM): 3.74 µM | GI50 (HOP-92): 10600 nM | GI50 [4]: 13400 nM | GI50 (A498): 16400 nM | GI50 [5]: 4240 nM | GI50 (HT-29): 2160 nM | GI50 (SNB-75): 12.8 µM | GI50 (MDA-MB-231): 2110 nM | GI50 (UACC-257): 5650 nM | GI50 (cells): 13200 nM | GI50 (MCF7): 3210 nM | GI50 (LOX IMVI): 1860 nM | GI50 [6]: 9250 nM | GI50 (OVCAR-3): 14400 nM | GI50 (NCI-H322M): 11000 nM | GI50 [7]: 9.95 µM | GI50 (IGROV-1): 16.1 µM | GI50 (PC-3): 12900 nM | GI50 (HOP-62): 11900 nM | GI50 (NCI-H460): 5440 nM | GI50 (HCT-15): 1940 nM | GI50 [8]: 15.6 µM | GI50 (SR): 2850 nM | GI50 [9]: 4850 nM | GI50 (UACC-62): 2170 nM
